# Assays:
# h-DHODH = molecular target: T1, h-DHODH (Homo sapiens, UniProt Q02127); assay: Dihydro-orotate dehydrogenase inhibition assay (U937 membrane preparations, DCIP reduction); format: biochemical; conditions: U937 membrane preparation; for inhibition at 0.3 µM: compound tested at 0.3 uM (footnote *)
# T1 construct: endogenous in cells; host or cells: U937 cells (membrane fraction, solubilised with 1% octyl glucoside)
# Protocol: Dihydro-Orotate Dehydrogenase Inhibition Assay
# Dihydro-orotate dehydrogenase (DHODH) catalyzes the […] of dihydro-orotate to orotate during de novo biosynthesis of pyrimidines Inhibition of DHODH activity in U937 membrane preparations was measured by the dihydro-orotate driven reduction of 2,6 dichloroindophenol (DCIP).
# U937 cells were homogenized in 20 mM Tris/HCl (pH 7.2) containing 1 mM EDTA. […] Following washes, the pellet was dissolved in 20 mM Tris/HCl containing 150 mM NaCl, 1 mM EDTA, and 1% octyl glucoside on ice for 1 h. Particulate matter was removed by centrifugation at 100000×g for 1 h at 4° C. […] The mixture was incubated at 37° C. for 4 h before measuring the change in absorbance on a plate reader (BMG Labtech., Germany) at 600 nm. Data were analyzed using GraphPad Prism. IC50 for each compound was determined based on the percent inhibition of dihydro-orotate […].
# IL-17 = assay: Inhibition of IL-17 release from mouse splenocytes (PMA + ionomycin, ELISA); format: cell-based, Balb/c mice; conditions: Splenocyte, 10 μM, 3 h
# Protocol: 2. Inhibition of IL-17 Release from Mouse Splenocytes:
# Splenocytes isolated from Balb/c mice were re-suspended in RPMI medium at a concentration of 1×10^6 cells/ml and seeded in a 6 well plate. Cells were incubated with desired concentrations of the inhibitor for 15 min prior to induction with 10 ng/ml PMA+1 μM ionomycin. After a 3 h incubation, supernatant was collected and analyzed for IL-17 concentration using an ELISA kit. Data were analyzed using GraphPad Prism. IC50 values for each compound were determined based on the percent inhibition due to the test compound compared to the control.
# T1 sequence (Q02127 whole entry): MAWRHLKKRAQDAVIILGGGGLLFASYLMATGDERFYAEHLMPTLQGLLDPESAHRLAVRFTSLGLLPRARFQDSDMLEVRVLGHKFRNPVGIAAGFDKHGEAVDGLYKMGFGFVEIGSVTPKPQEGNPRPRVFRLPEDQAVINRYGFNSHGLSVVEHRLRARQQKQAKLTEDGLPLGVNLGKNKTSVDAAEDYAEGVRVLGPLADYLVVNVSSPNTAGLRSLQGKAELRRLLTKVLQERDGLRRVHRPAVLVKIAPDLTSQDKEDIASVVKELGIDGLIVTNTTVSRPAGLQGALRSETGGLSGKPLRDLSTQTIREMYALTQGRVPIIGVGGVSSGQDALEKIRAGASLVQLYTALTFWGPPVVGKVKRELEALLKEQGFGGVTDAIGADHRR
inhibition at 1 µM (h-DHODH; 1 uM),IC50 (h-DHODH),melting point,inhibition at 0.3 µM (h-DHODH),h-DHODH % inhibition 1 uM (h-DHODH; 1 uM),SMILES,inhibition at 10 µM (IL-17)
75.5%,129 nM,135 to 140 °C,,,"CCOc1cccc(-c2cc(F)c(NC(=O)c3ccccc3C(=O)O)c(Cl)c2)c1 [Example 15, 2-(3-Chloro-3′-ethoxy-5-fluorobiphenyl-4-ylcarbamoyl)benzoic acid]",57.5%
14.3%,,194 to 199 °C,,,"COc1cccc(-c2ccc(NC(=O)c3ccccc3C(=O)O)cn2)c1 [Example 3, 2-(6-(3-Methoxyphenyl)pyridin-3-ylcarbamoyl)benzoic acid]",17.1%
85.3%,122 nM,128.6 to 132.1 °C,,,"CCCOc1cccc(-c2cc(F)c(NC(=O)c3ccccc3C(=O)O)c(F)c2)c1 [Example 26, 2-(3,5-Difluoro-3′-propoxybiphenyl-4-ylcarbamoyl)benzoic acid]",8.7%
50.3%,,190.1 to 192.4 °C,,,"CCOc1cccc(-c2cc(F)c(NC(=O)c3cc(Cl)c(Cl)cc3C(=O)O)c(F)c2)c1 [Example 17, 4,5-Dichloro-2-(3′-ethoxy-3,5-difluorobiphenyl-4-ylcarbamoyl)benzoic acid]",11.1%
,,182 to 185 °C,,,"O=C(O)c1ccccc1C(=O)Nc1c(Cl)cc(-c2ccccc2Cl)cc1Cl [Example 33, 2-(2′,3,5-Trichlorobiphenyl-4-ylcarbamoyl)benzoic acid]",14%
13.9%,,134.5 to 137.5 °C,,,"O=C(O)c1ccccc1C(=O)Nc1ccc(-c2cccc(OC3CC3)c2)cc1F [Example 94, 2-(3′-cyclopropoxy-3-fluorobiphenyl-4-ylcarbamoyl)benzoic acid]",
55.4%,,163 to 167 °C,,,"O=C(O)c1ccccc1C(=O)Nc1c(F)cc(-c2ccccc2F)cc1Cl [Example 20, 2-(3-Chloro-2′,5-difluorobiphenyl-4-ylcarbamoyl)benzoic acid]",24.3%
,,74 to 76 °C,57.9%,,"CCSc1cccc(-c2ccc(NC(=O)c3ccccc3C(=O)O)cc2F)c1 [Example 82, 2-[3′-(ethylthio)-2-fluorobiphenyl-4-ylcarbamoyl]benzoic acid]",17.6%
,,219 to 221 °C,50.2%,,"CCOc1cccc(-c2cc(F)c(NC(=O)c3ccncc3C(=O)O)c(F)c2)c1 [Example 77, 4-(3′-ethoxy-3,5-difluorobiphenyl-4-ylcarbamoyl)nicotinic acid]",9.25%
4.53%,,133.4 to 137.3 °C,,,"CCOc1cccc(-c2cc(F)c(NC(=O)c3nccnc3C(=O)O)c(F)c2)c1 [Example 7, 3-(3,5-Difluoro-3′-ethoxybiphenyl-4-ylcarbamoyl)pyrazine-2-carboxylic acid]",8.58%
28%,,158.6 to 162.2 °C,,,"COc1cccc(-c2cc(F)c(NC(=O)c3cc(Cl)c(Cl)cc3C(=O)O)c(F)c2)c1 [Example 16, 4,5-Dichloro-2-(3,5-difluoro-3′-methoxybiphenyl-4-ylcarbamoyl)benzoic acid]",12.3%
,,185 to 187 °C,,,"COc1ccc(Cl)c(-c2ccc(NC(=O)c3ccccc3C(=O)O)cc2F)c1 [Example 79, 2-(2′-chloro-2-fluoro-5′-methoxybiphenyl-4-ylcarbamoyl)benzoic acid]",24.6%
,,148 to 153 °C,,,"CCOc1cccc(-c2cc(F)c(NC(=O)c3nccnc3C(=O)O)c(Cl)c2)c1 [Example 11, 3-(3-Chloro-3′-ethoxy-5-fluorobiphenyl-4-ylcarbamoyl)pyrazine-2-carboxylic acid]",2.62%
,,162 to 167 °C,,,"CCSc1cccc(-c2c(F)cc(NC(=O)c3ccccc3C(=O)O)cc2F)c1 [Example 89, 2-[3′-(ethylthio)-2,6-difluorobiphenyl-4-ylcarbamoyl]benzoic acid]",25.5%
42.6%,,76 to 80 °C,,,"CCCc1c[nH]c2ccc(-c3cc(F)c(NC(=O)c4ccccc4C(=O)O)c(F)c3)cc12 [Example 99, 2-[2,6-Difluoro-4-(3-propyl-1H-indol-5-yl)phenylcarbamoyl]benzoic acid]",
1.49%,,150.2 to 154.3 °C,,,"O=C(O)c1ccccc1C(=O)Nc1ccc(-c2cccc(OC3CC3)c2)cc1 [Example 95, 2-(3′-cyclopropoxybiphenyl-4-ylcarbamoyl)benzoic acid]",
58.7%,,98 to 102 °C,,,"CCc1c[nH]c2ccc(-c3cc(F)c(NC(=O)c4ccccc4C(=O)O)c(Cl)c3)cc12 [Example 100, 2-[2-Chloro-4-(3-ethyl-1H-indol-5-yl)-6-fluorophenylcarbamoyl]benzoic acid]",
12.8%,,,,,"O=C(O)c1ccccc1C(=O)Nc1c(F)cc(-c2ccc3c(c2)CCO3)cc1F [Example 52, 2-[4-(2,3-Dihydrobenzofuran-5-yl)-2,6-difluorophenylcarbamoyl]benzoic acid]",13.8%
73.7%,,,,,"COc1ccc(F)c(-c2cc(F)c(NC(=O)c3ccccc3C(=O)O)c(Cl)c2)c1 [Example 61, 2-(3-chloro-2′,5-difluoro-5′-methoxybiphenyl-4-ylcarbamoyl)benzoic acid]",4.23%
,,158 to 160 °C,,10.46%,"O=C(O)c1ccccc1C(=O)Nc1c(F)cc(-c2cccc(OC(F)(F)F)c2)cc1F [Example 93, 2-[3,5-difluoro-3′-(trifluoromethoxy)biphenyl-4-ylcarbamoyl]benzoic acid]",

SMILES,inhibition at 1 µM (h-DHODH; 1 uM),IC50 (h-DHODH),melting point,inhibition at 0.3 µM (h-DHODH),h-DHODH % inhibition 1 uM (h-DHODH; 1 uM),inhibition at 10 µM (IL-17)
"CC(C)COc1cccc(-c2cc(F)c(NC(=O)c3ccccc3C(=O)O)c(F)c2)c1 [Example 34, 2-(3,5-Difluoro-3′-isobutoxybiphenyl-4-ylcarbamoyl)benzoic acid]",95.8%,62.5 nM,112.6 to 116.4 °C,,,5.96%
"CCCCOc1cccc(-c2ccc(NC(=O)c3ccccc3C(=O)O)c(F)c2)c1 [Example 92, 2-(3′-butoxy-3-fluorobiphenyl-4-ylcarbamoyl)benzoic acid]",9.65%,,102 to 105 °C,,,
"CCCCOc1cccc(-c2c(F)cc(NC(=O)c3ccccc3C(=O)O)cc2F)c1 [Example 98, 2-(3′-Butoxy-2,6-difluorobiphenyl-4-ylcarbamoyl)benzoic acid]",31%,,181.1 to 184.2 °C,,,
"CCCCOc1cccc(-c2ccc(NC(=O)c3ccccc3C(=O)O)cc2F)c1 [Example 97, 2-(3′-butoxy-2-fluorobiphenyl-4-ylcarbamoyl)benzoic acid]",,,164 to 167 °C,,,
"CCCCOc1cccc(-c2ccc(NC(=O)c3ccccc3C(=O)O)cc2)c1 [Example 96, 2-(3′-butoxybiphenyl-4-ylcarbamoyl)benzoic acid]",,,155 to 157 °C,,,
"CCCCOc1cccc(-c2c(F)c(F)c(NC(=O)c3ccccc3C(=O)O)c(F)c2F)c1 [Example 91, 2-(3′-butoxy-2,3,5,6-tetrafluorobiphenyl-4-ylcarbamoyl)benzoic acid]",42.4%,,215.5 to 218.5 °C,,,
